Assay results from US20230295152A1 (SENDA BIOSCIENCES, INC., priority 2019, published 2023).
≈ marks a conversion by molar mass, not a printed value. Like-named read-outs stand apart in the source and are kept apart here.

What was measured:
[1] = Solubility Determination Assay in PBS pH 1.6 and pH 7.4; format: physicochemical; details: PBS buffer, aqueous buffer, kinetic from dmso stock
Procedure, shortened: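 Compounds from 10 mM DMSO stock diluted into PBS pH 1.6 or pH 7.4 (15 μL into 485 μL), stirred 2 hours, then filtered. Filtrate quantified by LC-MS/MS against a standard of known concentration with internal standard; single determination.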

[2] = Hepatocyte Stability Assay, human; format: in vitro ADME; details: cryopreserved hepatocytes in suspension; human hepatocytes; read-out: Human hepatocyte clearance
[3] = PBS pH 1.6, 25° C., read-out: Aq. Solubility at pH = 1.6
[4] = PBS pH 7.4, 25° C., read-out: Aq. Solubility at pH = 7.4

Row | Compound | solubility at 2 h [1, 3] [µM] | solubility at 2 h [1, 4] [µM] | CLint scaled at 1 μM [2] [mL/min/kg]
1 | CC(C)(O)Cn1cnc2c(-c3cnsc3)nc(-c3ccc(C(F)(F)F)cn3)cc2c1=O [Compound 101, 3-(2-hydroxy-2-methylpropyl)-8-(isothiazol-4-yl)-6-(5-(trifluoromethyl)pyridin-2-yl)pyrido[3,4-d]pyrimidin-4(3H)-one] | 0.1 to 1 (≈ 0.0447 to 0.447 µg/mL) | < 0.1 | < 20
2 | Cn1cc(-c2nc(-c3ccc(C(F)(F)F)nc3)cc3c(=O)n([C@H]4COC[C@H]4O)cnc23)cn1 [Compound 88] | ≥ 1 | 0.1 to 1 (≈ 0.0458 to 0.458 µg/mL) | < 20
3 | C[C@@H](CO)n1cnc2c(-c3cccc(F)c3)nc(-c3ccc(Cl)cc3)cc2c1=O [Compound 7] | 0.1 to 1 (≈ 0.041 to 0.41 µg/mL) | < 0.1 | 20 to 50
4 | O=c1c2cc(-c3ccc(Cl)cc3)nc(-c3cccnc3)c2ncn1[C@@H]1COC[C@H]1O [Compound 152, 6-(4-chlorophenyl)-3-((3R,4S)-4-hydroxytetrahydrofuran-3-yl)-8-(pyridin-3-yl)pyrido[3,4-d]pyrimidin-4(3H)-one] | ≥ 1 | ≥ 1 | 20 to 50
